Assay results published in patent US20250179059A1 (The Regents of the University of California, priority 2021, published 2025).

How the values were obtained:
[1] = biological target: T1, human BRD4 bromodomain II (Homo sapiens, UniProt O60885); assay: Bromodomain binding assay (AlphaScreen), BRD4 BDII; conditions: BRD4 BDII AlphaScreen assay; read-out: BRD4 BD2 IC50
T1 construct: human BRD4 bromodomain II [based on Genbank NM_058243, residues 349-460]; host or cells: E. coli
In short: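 Compounds (10-point, 3-fold series) were preincubated 30 min at room temperature with E. coli-expressed N-terminal His6-tagged BRD4 BDII (residues 349-460) or BDI (residues 44-170) in 50 mM HEPES pH 7.5, 100 mM NaCl, 0.05% CHAPS, 0.1% BSA, 1% DMSO. Displacement of biotinylated tetra-acetylated H4 1-21 peptide was read by AlphaScreen; IC50 from curve fitting.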

[2] = test system: human SKM-1 acute myeloid leukemia cells; assay: SKM-1 antiproliferation cell-based assay (ATPlite)
In short: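 Log-phase cells in RPMI 1640/15% FBS were seeded at 34722 cells/mL and exposed for 4 days to nine-concentration DMSO serial dilutions in triplicate. Viability was read as ATP luminescence (ATPlite 1step), and IC50 values came from variable-slope non-linear regression.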

[3] = Homo sapiens, SKM-1, SKM-1 antiproliferation assay

| IC50 [1] | GI50 [2, 3] | GI50 ([2]; SKM-1 antiproliferation assay) | SMILES |
| --- | --- | --- | --- |
| 1 to 10 nM | 0.3 to 30 nM | – | Cc1cc(-c2ccc(-n3ccn(C)c3=O)c(Cl)c2)c(O)c(-c2cnc(N)c(N3CCC4(CCN4C(C)C)C3)c2)n1 (stereo not drawn) [Example 975, 1-(4-(6′-amino-3-hydroxy-5′-(1-isopropyl-1,6-diazaspiro[3.4]octan-6-yl)-6-methyl-[2,3′-bipyridin]-4-yl)-2-chlorophenyl)-3-methyl-1H-imidazol-2(3H)-one] |
| 1 to 10 nM | 0.3 to 30 nM | – | Cn1ccn(-c2ccc(-c3ccnc(-c4cccc(N5CCN(C(C)(C)C)CC5)c4)c3N)cc2Cl)c1=O [Example 976, 1-(4-(3-Amino-2-(3-(4-(tert-butyl)piperazin-1-yl)phenyl)pyridin-4-yl)-2-chlorophenyl)-3-methyl-1H-imidazol-2(3H)-one] |
| 0.01 to 1 nM | 0.3 to 30 nM | – | COc1ncc(-c2nc(C)cc(-c3ccc(-n4ccn(C)c4=O)c(Cl)c3)c2O)cc1N1CCC2(CCN2C(C)C)C1 (stereo not drawn) [Example 977, 1-(2-chloro-4-(3-hydroxy-5′-(1-isopropyl-1,6-diazaspiro[3.4]octan-6-yl)-6′-methoxy-6-methyl-[2,3′-bipyridin]-4-yl)phenyl)-3-methyl-1H-imidazol-2(3H)-one] |
| 0.01 to 1 nM | 0.3 to 30 nM | – | Cc1cc(-c2ccc(-n3ccn(C)c3=O)c(Cl)c2)c(O)c(-c2cnc(N)c(N3CCC4(CCCN4C(C)C)C3)c2)n1 (stereo not drawn) [Example 978, 1-(4-(6′-amino-3-hydroxy-5′-(1-isopropyl-1,7-diazaspiro[4.4]nonan-7-yl)-6-methyl-[2,3′-bipyridin]-4-yl)-2-chlorophenyl)-3-methyl-1H-imidazol-2(3H)-one] |
| 1 to 10 nM | 0.3 to 30 nM | – | Cn1ccn(-c2ccc(-c3ccnc(-c4cccc(N5CCN(C(C)(C)C)CC5)c4)c3O)cc2Cl)c1=O [Example 979, 1-(4-(2-(3-(4-(tert-butyl)piperazin-1-yl)phenyl)-3-hydroxypyridin-4-yl)-2-chlorophenyl)-3-methyl-1H-imidazol-2(3H)-one] |
| 1 to 10 nM | 0.3 to 30 nM | – | CNc1ncc(-c2nc(C)cc(-c3ccc(-n4ccn(C)c4=O)c(Cl)c3)c2O)cc1N1CCC2(CCN2C(C)C)C1 (stereo not drawn) [Example 980, 1-(2-chloro-4-(3-hydroxy-5′-(1-isopropyl-1,6-diazaspiro[3.4]octan-6-yl)-6-methyl-6′-(methylamino)-[2,3′-bipyridin]-4-yl)phenyl)-3-methyl-1H-imidazol-2(3H)-one] |
| 1 to 10 nM | 0.3 to 30 nM | – | Cc1cc(-c2ccc(-n3ccn(C)c3=O)c(Cl)c2)c(O)c(-c2cccc(N3CCC4(CCCN4C(C)C)C3)c2)n1 (stereo not drawn) [Example 981, 1-(2-chloro-4-(3-hydroxy-2-(3-(1-isopropyl-1,7-diazaspiro[4.4]nonan-7-yl)phenyl)-6-methylpyridin-4-yl)phenyl)-3-methyl-1H-imidazol-2(3H)-one] |
| 1 to 10 nM | 30 to 300 nM | – | COc1ncc(-c2cc(F)cc(-c3ccc(-n4cc(C)n(C)c4=O)c(Cl)c3)c2O)cc1N1CCN(C(C)(C)C)CC1 [Example 982, 1-(3′-(5-(4-(tert-butyl)piperazin-1-yl)-6-methoxypyridin-3-yl)-3-chloro-5′-fluoro-2′-hydroxy-[1,1′-biphenyl]-4-yl)-3,4-dimethyl-1H-imidazol-2(3H)-one] |
| 0.01 to 1 nM | 0.3 to 30 nM | – | Cc1cc(-c2ccc(-n3ccn(C)c3=O)c(Cl)c2)c(O)c(-c2cccc(N3CCC4(CCN4C(C)C)C3)c2)n1 (stereo not drawn) [Example 983, 1-(2-chloro-4-(3-hydroxy-2-(3-(1-isopropyl-1,6-diazaspiro[3.4]octan-6-yl)phenyl)-6-methylpyridin-4-yl)phenyl)-3-methyl-1H-imidazol-2(3H)-one] |
| 10 to 100 nM | 0.3 to 30 nM | – | Cn1ccn(-c2ccc(-c3ccnc(-c4cnc(N)c(N5CCN(C(C)(C)C)CC5)c4)c3O)cc2Cl)c1=O [Example 984, 1-(4-(6′-amino-5′-(4-(tert-butyl)piperazin-1-yl)-3-hydroxy-[2,3′-bipyridin]-4-yl)-2-chlorophenyl)-3-methyl-1H-imidazol-2(3H)-one] |
| 1 to 10 nM | 0.3 to 30 nM | – | CNc1ncc(-c2nc(C)cc(-c3ccc(-n4ccn(C)c4=O)c(Cl)c3)c2O)cc1N1CCC2(CCCN2C(C)C)C1 (stereo not drawn) [Example 985, 1-(2-chloro-4-(3-hydroxy-5′-(1-isopropyl-1,7-diazaspiro[4.4]nonan-7-yl)-6-methyl-6′-(methylamino)-[2,3′-bipyridin]-4-yl)phenyl)-3-methyl-1H-imidazol-2(3H)-one] |
| 1 to 10 nM | 0.3 to 30 nM | – | CNc1ncc(-c2nccc(-c3ccc(-n4ccn(C)c4=O)c(Cl)c3)c2O)cc1N1CCN(C(C)(C)C)CC1 [Example 986, 1-(4-(5′-(4-(tert-butyl)piperazin-1-yl)-3-hydroxy-6′-(methylamino)-[2,3′-bipyridin]-4-yl)-2-chlorophenyl)-3-methyl-1H-imidazol-2(3H)-one] |
| 1 to 10 nM | 0.3 to 30 nM | – | CC(C)N1CCC12CCN(c1cc(-c3cc(F)cc(-c4ccc(-n5ccn(C)c5=O)c(Cl)c4)c3O)cnc1N(C)C)C2 (stereo not drawn) [Example 987, 1-(3-chloro-3′-(6-(dimethylamino)-5-(1-isopropyl-1,6-diazaspiro[3.4]octan-6-yl)pyridin-3-yl)-5′-fluoro-2′-hydroxy-[1,1′-biphenyl]-4-yl)-3-methyl-1H-imidazol-2(3H)-one] |
| 1 to 10 nM | 0.3 to 30 nM | – | CN(C)c1ncc(-c2nccc(-c3ccc(-n4ccn(C)c4=O)c(Cl)c3)c2O)cc1N1CCN(C(C)(C)C)CC1 [Example 988, 1-(4-(5′-(4-(tert-butyl)piperazin-1-yl)-6′-(dimethylamino)-3-hydroxy-[2,3′-bipyridin]-4-yl)-2-chlorophenyl)-3-methyl-1H-imidazol-2(3H)-one] |
| 1 to 10 nM | – | 0.3 to 30 nM | Cc1cc(-c2ccc(-n3ccn(C)c3=O)c(Cl)c2)c(O)c(-c2cc(N3CCN(C(C)(C)C)CC3)c3nccn3c2)n1 [Example 989, 1-(4-(2-(8-(4-(tert-butyl)piperazin-1-yl)imidazo[1,2-a]pyridin-6-yl)-3-hydroxy-6-methylpyridin-4-yl)-2-chlorophenyl)-3-methyl-1H-imidazol-2(3H)-one] |
| 1 to 10 nM | 0.3 to 30 nM | – | Cc1cc(-c2ccc(-n3ccn(C)c3=O)c(Cl)c2)c(O)c(-c2cnc(N(C)C)c(N3CCC4(CCN4C(C)C)C3)c2)n1 (stereo not drawn) [Example 990, 1-(2-chloro-4-(6′-(dimethylamino)-3-hydroxy-5′-(1-isopropyl-1,6-diazaspiro[3.4]octan-6-yl)-6-methyl-[2,3′-bipyridin]-4-yl)phenyl)-3-methyl-1H-imidazol-2(3H)-one] |
| 1 to 10 nM | 0.3 to 30 nM | – | [2H]C([2H])([2H])n1ccn(-c2ccc(-c3cc(C)nc(-c4cccc(N5CCN(C(C)(C)C)CC5)c4)c3O)cc2Cl)c1=O [Example 991, 1-(4-(2-(3-(4-(tert-Butyl)piperazin-1-yl)phenyl)-3-hydroxy-6-methylpyridin-4-yl)-2-chlorophenyl)-3-(methyl-d3)-1,3-dihydro-2H-imidazol-2-one] |
| 1 to 10 nM | 0.3 to 30 nM | – | Cc1cc(-c2ccc(-n3ccn(C)c3=O)c(Cl)c2)c(N)c(-c2cccc(N3CCN(C(C)(C)C)CC3)c2)n1 [Example 992, 1-(4-(3-Amino-2-(3-(4-(tert-butyl)piperazin-1-yl)phenyl)-6-methylpyridin-4-yl)-2-chlorophenyl)-3-methyl-1H-imidazol-2(3H)-one] |
| 10 to 100 nM | 0.3 to 30 nM | – | Cc1ncc(-c2nccc(-c3ccc(-n4ccn(C)c4=O)c(Cl)c3)c2O)cc1N1CCN(C(C)(C)C)CC1 [Example 993, 1-(4-(5′-(4-(tert-Butyl)piperazin-1-yl)-3-hydroxy-6′-methyl-[2,3′-bipyridin]-4-yl)-2-chlorophenyl)-3-methyl-1H-imidazol-2(3H)-one] |
| 1 to 10 nM | 0.3 to 30 nM | – | Cc1cc(-c2ccc(-n3ccn(C)c3=O)c(Cl)c2)c(O)c(-c2cnc(N(C)C)c(N3CCC4(CCCN4C(C)C)C3)c2)n1 (stereo not drawn) [Example 994, 1-(2-Chloro-4-(6′-(dimethylamino)-3-hydroxy-5′-(1-isopropyl-1,7-diazaspiro[4.4]nonan-7-yl)-6-methyl-[2,3′-bipyridin]-4-yl)phenyl)-3-methyl-1H-imidazol-2(3H)-one] |
| 1 to 10 nM | 0.3 to 30 nM | – | Cc1cc(-c2ccc(-n3ccn(C)c3=O)c(Cl)c2)c(O)c(-c2ccnc(N3CC[C@](C)(O)C3)c2)n1 [Example 995, (S)-1-(2-chloro-4-(3-hydroxy-2′-(3-hydroxy-3-methylpyrrolidin-1-yl)-6-methyl-[2,4′-bipyridin]-4-yl)phenyl)-3-methyl-1H-imidazol-2(3H)-one] |
| 1 to 10 nM | 0.3 to 30 nM | – | Cc1cc(-c2ccc(-n3ccn(C)c3=O)c(Cl)c2)c(O)c(-c2ccnc(N3CC[C@@](C)(O)C3)c2)n1 [Example 996, (R)-1-(2-chloro-4-(3-hydroxy-2′-(3-hydroxy-3-methylpyrrolidin-1-yl)-6-methyl-[2,4′-bipyridin]-4-yl)phenyl)-3-methyl-1H-imidazol-2(3H)-one] |
| 1 to 10 nM | 0.3 to 30 nM | – | COc1ncc(-c2nc(C)cc(-c3ccc(-n4ccn(C)c4=O)c(F)c3)c2O)cc1N1CCN(C(C)(C)C)CC1 [Example 997, 1-(4-(5′-(4-(tert-butyl)piperazin-1-yl)-3-hydroxy-6′-methoxy-6-methyl-[2,3′-bipyridin]-4-yl)-2-fluorophenyl)-3-methyl-1H-imidazol-2(3H)-one] |
| 1 to 10 nM | 0.3 to 30 nM | – | Cc1cc(-c2ccc(-n3ccn(C)c3=O)c(Cl)c2)c(O)c(-c2ccnc(N3CCN(C(C)(C)C)CC3)c2)n1 [Example 998, 1-(4-(2′-(4-(tert-butyl)piperazin-1-yl)-3-hydroxy-6-methyl-[2,4′-bipyridin]-4-yl)-2-chlorophenyl)-3-methyl-1H-imidazol-2(3H)-one] |
